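48-hour exposure; five concentrations; linearly interpolated endpoints. The concentration for 50% growth inhibition is given as GI50. TGI: concentration producing complete growth inhibition.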
Assays:
Assay in all cases: growth of human tumour cells (NCI), 48 h
A549 NSCLC = test system: A549 NSCLC
CAKI-1 renal = test system: CAKI-1 renal
HOP-92 NSCLC = test system: HOP-92 NSCLC
IGROV1 ovarian = test system: IGROV1 ovarian
K-562 leukemia = test system: K-562 leukemia
KM12 colon = test system: KM12 colon
MOLT-4 leukemia = test system: MOLT-4 leukemia
MDA-MB-435 = test system: MDA-MB-435
NCI/ADR-RES ovarian = test system: NCI/ADR-RES ovarian
PC-3 prostate = test system: PC-3 prostate

Row | SMILES | TGI (A549 NSCLC) | TGI (CAKI-1 renal) | TGI (HOP-92 NSCLC) | TGI (IGROV1 ovarian) | TGI (K-562 leukemia) | TGI (KM12 colon) | TGI (MOLT-4 leukemia) | GI50 (A549 NSCLC) | GI50 (CAKI-1 renal) | GI50 (IGROV1 ovarian) | GI50 (K-562 leukemia) | GI50 (KM12 colon) | GI50 (MDA-MB-435) | TGI (MDA-MB-435) | GI50 (MOLT-4 leukemia) | GI50 (NCI/ADR-RES ovarian) | TGI (NCI/ADR-RES ovarian) | GI50 (PC-3 prostate) | TGI (PC-3 prostate) | GI50 (HOP-92 NSCLC)
1 | COC(=O)C(C(=O)C(=O)Nc1ccc([N+](=O)[O-])cc1)c1nc2cc(C)c(C)cc2[nH]c1=O (stereo not drawn) | > 100 µM | > 100 µM | > 100 µM | > 100 µM | > 100 µM | > 100 µM | > 100 µM | – | – | – | – | – | – | – | – | – | – | – | – | –
2 | O=c1nc(-c2ccccc2)scc1-c1ccccc1 | > 100 µM | > 100 µM | > 100 µM | > 100 µM | > 100 µM | > 100 µM | > 100 µM | – | – | – | – | – | – | – | – | – | – | – | – | –
3 | CC1=C2[C@@H](c3ccccc3)C3C=CC2(c2ccccc23)N(C(=O)Nc2cccc3ccccc23)C1=O (stereo partly drawn) | > 100 µM | > 100 µM | > 100 µM | > 100 µM | > 100 µM | > 100 µM | > 100 µM | – | – | – | – | – | – | – | – | – | – | – | – | –
4 | CNC(=O)OCc1cc2ccncc2c2c1[nH]c1ccccc12 | > 100 µM | > 100 µM | > 100 µM | > 100 µM | > 100 µM | > 100 µM | > 85.3 µM | – | – | – | – | – | – | – | – | – | – | – | – | –
5 | O=C1C(Cl)=C(Nc2cccc(O)c2)C(=O)N1c1ccc(Cl)cc1Cl | > 100 µM | 45 µM | – | 51.5 µM | 58.1 µM | > 100 µM | 33.1 µM | 46.3 µM | 12.9 µM | 22.5 µM | 22 µM | 38.8 µM | 30.7 µM | > 100 µM | 7.32 µM | 32.2 µM | > 100 µM | 13.9 µM | 38.2 µM | –
6 | N#Cc1nc(Nc2ccc(Cl)cc2)sc1N | > 67.1 µM | 45.1 µM | 52.1 µM | > 88.9 µM | 48.6 µM | > 86.5 µM | 29.2 µM | – | – | – | – | – | – | – | – | – | – | – | – | –
7 | O=C1CCCC(=O)C1C(=O)c1ccc(C(F)(F)F)cc1[N+](=O)[O-] | > 100 µM | > 100 µM | – | > 100 µM | > 100 µM | > 100 µM | > 100 µM | > 100 µM | > 100 µM | > 100 µM | > 100 µM | > 100 µM | > 100 µM | > 100 µM | > 100 µM | > 100 µM | > 100 µM | > 100 µM | > 100 µM | –
8 | COc1cc(C2C(C(=O)OCc3ccccc3)=C(C)NC(C)=C2C(=O)OCc2ccccc2)cc(OC)c1OC | > 100 µM | > 100 µM | 37.9 µM | – | – | – | > 100 µM | 3.6 µM | 3.05 µM | – | – | – | – | – | 1.31 µM | 3.06 µM | > 100 µM | 1.48 µM | > 100 µM | 3.08 µM
9 | COc1cc2c(cc1OC)C1(c3ccccc3)ON=C(c3ccccc3)N1CS2 (stereo not drawn) | > 100 µM | > 100 µM | > 100 µM | > 100 µM | > 100 µM | > 100 µM | > 100 µM | – | – | – | – | – | – | – | – | – | – | – | – | –
10 | Cc1nn(-c2ccccc2)c(C)c1/C=N/N1CCN(Cc2ccccc2)CC1 | > 100 µM | > 100 µM | – | – | > 100 µM | > 100 µM | 55.2 µM | > 100 µM | > 100 µM | – | 31.2 µM | 31.3 µM | > 100 µM | > 100 µM | 26.8 µM | 50.3 µM | > 100 µM | 25.2 µM | 96.5 µM | –
11 | O=C(CC(=O)c1cccc([N+](=O)[O-])c1)C(=O)Nc1nc([N+](=O)[O-])cs1 | > 100 µM | > 100 µM | > 100 µM | > 100 µM | > 100 µM | > 100 µM | > 100 µM | – | – | – | – | – | – | – | – | – | – | – | – | –
12 | CC1OC(n2cc(I)c(=O)[nH]c2=O)C=CC1=O (stereo not drawn) | 72.6 µM | 29.5 µM | 33.9 µM | 39.2 µM | 18 µM | 25.8 µM | 33.8 µM | – | – | – | – | – | – | – | – | – | – | – | – | –
13 | O=c1[nH]c(=O)n(C2OC(CO)C(O)C2O)cc1OCc1ccccc1 (stereo not drawn) | > 100 µM | > 100 µM | > 100 µM | > 100 µM | > 100 µM | > 100 µM | > 100 µM | – | – | – | – | – | – | – | – | – | – | – | – | –
14 | CCCCCCCCCCNC(=S)OCCCC | 73.6 µM | 61.1 µM | 41.1 µM | 87.3 µM | 36.6 µM | 29.9 µM | 32.6 µM | – | – | – | – | – | – | – | – | – | – | – | – | –
15 | COc1ccc(C(=O)C(CC2C(=O)CC(C)(C)C(C(=O)C(=O)Nc3c(C)cccc3C)C2=O)c2ccc(OC)cc2)cc1 (stereo not drawn) | > 100 µM | > 100 µM | > 100 µM | > 100 µM | – | > 100 µM | > 100 µM | – | – | – | – | – | – | > 100 µM | – | – | > 100 µM | – | > 100 µM | –
16 | CN1CCc2cc(O)c3cc2C1Cc1ccc(cc1)Oc1cc(ccc1O)CC1c2c(cc4c(c2O3)OCO4)CCN1C (stereo not drawn) | > 100 µM | – | – | > 100 µM | 39.4 µM | > 100 µM | 85.4 µM | – | – | – | – | – | – | – | – | – | – | – | – | –
17 | CCOC1=C2C(C)(CCC3[C@@]4(C)C=CC(=O)C(C)(C)C4CC(O)[C@@]23C)C(c2ccoc2)C1=O (stereo partly drawn) | 98.6 µM | > 100 µM | 41.9 µM | > 100 µM | 50.2 µM | 46.6 µM | 40.4 µM | – | – | – | – | – | – | – | – | – | – | – | – | –
18 | C[CH2][Sn]([Cl])([CH2]C)[CH2]C | 5.04 µM | – | 0.689 µM | 5.22 µM | 5 µM | 12.8 µM | 2.96 µM | 1.18 µM | – | 0.646 µM | 0.718 µM | 1.08 µM | – | – | 0.369 µM | – | – | – | – | 0.186 µM
19 | N=C(N)c1ccc(-c2ccc(-c3ccc(Cl)c(Cl)c3)o2)nc1 | – | 2.85 µM | 2.97 µM | 3.59 µM | – | – | – | – | 1.47 µM | 1.86 µM | – | – | 1.78 µM | 3.25 µM | – | – | – | 1.72 µM | 3.29 µM | 1.41 µM
20 | COc1ccc2c([nH]c3cc(O)c(C)cc32)c1CC=C(C)C | > 25 µM | – | > 25 µM | > 25 µM | 24 µM | – | 15.9 µM | 8.47 µM | – | – | 5.78 µM | – | – | – | 4.94 µM | – | – | – | – | 8.03 µM
21 | C/C=C/C=C\C(=O)C1c2cccc(O)c2C(=O)c2c(O)cc(C)cc21 (stereo not drawn) | 2.13 µM | 4.34 µM | 3.33 µM | 2.91 µM | > 100 µM | 1.51 µM | 8.19 µM | – | – | – | – | – | – | – | – | – | – | – | – | –

Source: PubChem BioAssay (NCI)
